Like-named read-outs stand apart in the source and are kept apart here.
How the values were obtained:
[1] = target: T1, delta-opioid receptor (DOR) (Rattus norvegicus, UniProt P33533); experiment: DOR radioligand competition binding assay ([3H]-DPDPE); conditions: Delta screening results
T1 construct: Rat cortices were homogenized using 50 mM Tris, pH 7.4, 10 mM MgCl2-6H2O, 200 µM PMSF; from tissue; host or cells: rat cortex membranes
Method in brief: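 Radioligand was 2 nM [3H]-DPDPE, incubated 2.5 h at 25 °C with homogenized rat cortex (50 mM Tris pH 7.4, 10 mM MgCl2, 200 µM PMSF). Bound ligand separated on GF/B filters and counted; nonspecific binding from unlabeled DPDPE. Values are mean ± SD, two experiments, two replicates each.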

C57BL/6J mice [2] = experiment: 55 °C warm-water tail-withdrawal assay (antinociception); type: in vivo, mouse; conditions: for ED50 (and 95% Confidence Interval (C.I.)) Values, i.c.v. (nmol): antinociception at peak response, mice, * ED50 estimated where maximum antinociception not achieved; for duration of significant antinociception: maximum doses tested
Experimental: For intracerebroventricular (i.c.v.) administration, the 1968-series compounds were dissolved in dimethyl sulfoxide (DMSO), followed by the addition of sterile saline (0.9%) so that the final vehicle was 50% DMSO and 50% saline, and the i.c.v. injections were performed as described previously. For per os (p.o.) administration, 1968-4 and 1968-22 were administered in 10% Ethanol/10%Tween-80/80% 0.9% saline. All solutions for animal administration were prepared fresh daily.
Antinociception was calculated according to the following formula: % antinociception = 100 × (test latency − control latency)/(15 − control latency). Tail-withdrawal data points are the means of 8–16 mice, unless otherwise indicated, with SEM shown by error bars.
All dose–response lines were analyzed by regression, and ED50 (effective dose producing 50% antinociception) values and 95% confidence intervals (C.I.) were determined using individual data points from graded dose–response curves with Prism 8.0 software (GraphPad, La Jolla, CA, USA). Percent antinociception was used to determine within group effects and to allow comparison to baseline latency in tail-withdrawal experiments. The statistical significance of differences between ED50 values was determined by evaluation of the ED50 value shift via nonlinear regression modeling with Prism software. Significant differences in behavioral data were analyzed by ANOVA (one-way or two-way with repeated measures (RM), as appropriate). Significant results were further analyzed with Sidak’s, Tukey’s, or Dunnett’s multiple comparison post hoc tests, as appropriate. Data for conditioned place preference experiments were analyzed by two-way RM ANOVA, with analyses examining the main effect of the conditioned place preference phase (e.g., pre- or post-conditioning) and the interaction of drug pretreatment. Significant effects were further analyzed using Sidak’s HSD post hoc testing. All data are presented as mean ± SEM, with significance set at p < 0.05.

[3] = target: T2, kappa-opioid receptor (KOR) (Cavia porcellus, UniProt P41144); experiment: KOR radioligand competition binding assay ([3H]U69,593); parameters: species or system guinea pig; conditions: Kappa screening results
T2 construct: Guinea pig cortices and cerebella were homogenized using 50 mM Tris, pH 7.4; from tissue; host or cells: guinea pig cortex and cerebellum membranes
Method in brief: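 Guinea pig cortex and cerebellum homogenates in 50 mM Tris pH 7.4 with 10 mM MgCl2, 2 nM [3H]U69,593, 2 h at 25 °C. Unlabeled U50,488 gave the standard curve and nonspecific binding. Filtration on BSA-soaked GF/B filters, scintillation counting; two replicates, repeated twice, mean ± SD.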

mu-opioid receptor (MOR) = target: T3, mu-opioid receptor (MOR) (Rattus norvegicus, UniProt P33535); experiment: MOR radioligand competition binding assay ([3H]-DAMGO); conditions: Mu screening results
T3 construct: Rat cortices were homogenized using 50 mM Tris, pH 7.4, and centrifuged at 16,500 rpm for 10 min; from tissue; host or cells: rat cortex membranes
Method in brief: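 Competition for 2 nM [3H]-DAMGO binding was measured in rat cortex membrane suspension (50 mM Tris, pH 7.4, plus 2 mg/mL bovine serum). After filtration through GF/B filters pre-soaked in BSA, filter radioactivity was counted. Data are two duplicate experiments reported as mean ± SD.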

C57BL/6J mice [4] = experiment: Opioid receptor involvement in antinociception (antagonist pretreatment, tail-withdrawal assay); type: in vivo, mouse
Experimental: Pretreatment of mice with the opioid antagonist naloxone (10 mg/kg, s.c., −15 min) was used to assess receptor contribution to the observed antinociception induced by maximal tested doses of each 1968-series compound tested.
The opioid receptor involvement in the agonist activity of the heterocyclic peptidomimetics was determined by pretreating mice with a single dose of β-funaltrexamine (β-FNA, 10 mg/kg, i.p.) or nor-BNI (10 mg/kg, i.p.) 24 h in advance of administration of a dose of 1968-series compound.

κ opioid receptor = target: κ opioid receptor; parameters: method as in PMID 25996309; conditions: cited from earlier work
δ opioid receptor = target: δ opioid receptor; parameters: method as in PMID 25996309; conditions: cited from earlier work
C57BL/6J mice [5] = experiment: Acute antinociceptive tolerance determination
C57BL/6J mice [6] = experiment: Ambulation (locomotor activity) in CLAMS/Oxymax system; type: in vivo, mouse; conditions: 100 nmol, i.c.v.
Experimental: (§1) Respiration rates (in breaths per minute) and animal locomotive activity (as ambulations) were assessed using the Oxymax/CLAMS system (Columbus Instruments, Columbus, OH), as described previously. Mice were habituated to their individual sealed housing chambers for 60 min before testing. Mice were administered 1968-22 (0.3–100 nmol, i.c.v.), morphine (100 nmol, i.c.v.), or vehicle, as indicated, and five min later confined to the CLAMS testing chambers. Pressure monitoring within the sealed chambers measured frequency of respiration. Infrared beams located in the floor measured locomotion as number of beam breaks. Respiration and locomotive data were averaged over 20 min periods for 120 min post-injection of the test compound. Data are presented as % vehicle response ± SEM, ambulation or breaths per minute.

C57BL/6J mice [7] = experiment: Conditioned place preference / aversion; type: in vivo, mouse; conditions: 10 mg/kg, i.p.; two days of place conditioning
C57BL/6J mice [8] = experiment: Respiration rate in CLAMS/Oxymax system; type: in vivo, mouse; conditions: 100 nmol, i.c.v.
Experimental: as §1

[9] = first Ki column, unit not printed (apparently M), read-out: Ki (first column)
[10] = mean of both Ki, unit inferred, read-out: MEAN (Ki)
[11] = mean of two experiments, read-out: Ki
[12] = second Ki column, unit not printed (apparently M), read-out: Ki (second column)
[13] = experiment 1, unit inferred, read-out: Ki (Exp 1)
[14] = experiment 2, unit inferred, read-out: Ki (Exp 2)
[15] = mean of Exp 1 and Exp 2, unit inferred, read-out: MEAN (Ki)

SMILES: Cc1cc(O)cc(C)c1C[C@H]1CN([C@@H](Cc2ccc(O)cc2)CN2C(=N)NC[C@@H]2Cc2ccccc2)C(=N)N1 [1968-4]
- Ki [1, 9]: 729 nM
- Ki [1, 10]: 874 nM
- Ki [1, 11]: 874 nM
- Ki [1, 12]: 1020 nM
- antinociception at the highest dose tested (C57BL/6J mice [2]; 30 nmol, i.c.v.): approximately 60%
- antinociception after oral administration (in words) (C57BL/6J mice [2]; 10 mg/kg, p.o.): significant antinociception
- duration of significant antinociception after oral administration (C57BL/6J mice [2]; 10 mg/kg, p.o.): brief
- time of peak antinociception after i.c.v. administration (C57BL/6J mice [2]; i.c.v.): 30 min
- ED50 (and 95% Confidence Interval (C.I.)) Values, i.c.v. (nmol) (C57BL/6J mice [2]; i.c.v.): 20.8 (5.52–127.1) nmol
- duration of significant antinociception (C57BL/6J mice [2]; i.c.v.): 60 min
- Ki [3, 13]: 311 nM
- Ki [3, 14]: 178 nM
- Ki [3, 15]: 245 nM
- Ki [3, 11]: 245 nM
- Ki (mu-opioid receptor (MOR); [13]): 16.9 nM
- Ki (mu-opioid receptor (MOR); [14]): 9.51 nM
- Ki (mu-opioid receptor (MOR); [15]): 13.2 nM
- Ki (mu-opioid receptor (MOR); [11]): 13 nM

SMILES: Cc1cc(O)cc(C)c1C[C@@H](CN1C(=N)NC[C@@H]1C)N1C[C@H](Cc2ccc(O)cc2)NC1=N [1968-16]
- Ki [1, 9]: 616 nM
- Ki [1, 10]: 697 nM
- Ki [1, 11]: 697 nM
- Ki [1, 12]: 777 nM
- ED50 (and 95% Confidence Interval (C.I.)) Values, i.c.v. (nmol) (C57BL/6J mice [2]; i.c.v.): 2.00 (0.5–7.45) nmol
- duration of significant antinociception (C57BL/6J mice [2]; i.c.v.): 70 min
- Ki [3, 13]: 246 nM
- Ki [3, 14]: 293 nM
- Ki [3, 15]: 270 nM
- Ki [3, 11]: 270 nM
- Ki (mu-opioid receptor (MOR); [13]): 7.52 nM
- Ki (mu-opioid receptor (MOR); [14]): 9.24 nM
- Ki (mu-opioid receptor (MOR); [15]): 8.38 nM
- Ki (mu-opioid receptor (MOR); [11]): 8 nM
- effect of naloxone pretreatment on antinociception (C57BL/6J mice [4]; naloxone 10 mg/kg, s.c., −15 min, maximal tested i.c.v. dose of compound): most susceptible to antagonism by naloxone
- effect of naltrindole (DOR antagonist) pretreatment on antinociception (C57BL/6J mice [4]; naltrindole 20 mg/kg, i.p., −20 min, 1968-16 30 nmol or 1968-22 0.3 nmol, i.c.v.): significantly antagonized
- effect of nor-BNI (KOR antagonist) pretreatment on antinociception (C57BL/6J mice [4]; nor-BNI 10 mg/kg, i.p., −24 h, 1968-16 30 nmol or 1968-22 0.3 nmol, i.c.v.): significantly antagonized
- effect of β-FNA (MOR antagonist) pretreatment on antinociception (C57BL/6J mice [4]; β-FNA 10 mg/kg, i.p., −24 h, 1968-16 30 nmol or 1968-22 0.3 nmol, i.c.v.): significantly antagonized

SMILES: CC(C)C[C@H]1CN2C(=CC3=NC[C@H](C(C)C)N3C[C@@H]2Cc2ccc(O)cc2)N1CCc1ccccc1 [Diimidazodiazepine 14]
- Ki (κ opioid receptor): 23 ± 12 nM
- Ki (δ opioid receptor): 32 ± 6 nM

SMILES: CN1CC[C@]23c4c5ccc(O)c4O[C@H]2[C@@H](O)C=C[C@H]3[C@H]1C5 [Morphine, morphine, reference compound]
- fold rightward shift in dose-response curve of the second dose (acute tolerance) (C57BL/6J mice [5]; ED50 dose i.c.v. at 0 h, graded doses at 8 h): 7.71 fold
- ED50 (95% C.I.) of second dose at 8 h (C57BL/6J mice [5]; i.c.v., after ED50 pretreatment at 0 h): 23.8 (17.0–31.6) nmol
- time of peak antinociception after i.c.v. administration (C57BL/6J mice [2]; i.c.v.): 30 min
- ED50 (and 95% Confidence Interval (C.I.)) Values, i.c.v. (nmol) (C57BL/6J mice [2]; i.c.v.): 3.09 (2.76–3.50) nmol
- effect on ambulation vs vehicle (C57BL/6J mice [6]): elevated ambulations
- place conditioning result (C57BL/6J mice [7]): significant place preference
- effect on respiration rate vs vehicle (C57BL/6J mice [8]): significant, time-dependent respiratory depression
